Here are results for 2 compounds from PMC8316439, “An enzymatic activation of formaldehyde for nucleotide methylation” (Nature Communications, 2021).

Test [1] deals with T1, ThyX (Thermotoga maritima, UniProt Q9WYT0).
T1 sequence (Q9WYT0 1-220): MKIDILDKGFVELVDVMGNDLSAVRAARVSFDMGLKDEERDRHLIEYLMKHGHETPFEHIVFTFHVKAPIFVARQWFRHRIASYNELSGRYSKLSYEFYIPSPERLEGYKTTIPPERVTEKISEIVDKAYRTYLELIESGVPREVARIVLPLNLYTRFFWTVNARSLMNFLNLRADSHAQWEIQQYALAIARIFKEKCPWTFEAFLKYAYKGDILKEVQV
The test can be described thus: anaerobic methylation assay with purified ThyX (MS, […]-NMR); stopped-flow of FADH−•dUMP complex. The test is classed as biochemical.

The target in test [2] is T1, ThyX. The test can be described thus: stopped-flow kinetics of reduced ThyX-dUMP (kon/koff). The test is classed as binding.

Regarding `O=c1ccn([C@H]2C[C@H](O)[C@@H](COP(=O)(O)O)O2)c(=O)[nH]1` [dUMP], the “anaerobic methylation assay with purified ThyX (MS, 13C-NMR); stopped-flow of FA” value in test [1] was “confirmed the formation of dTMP only in the simultaneous presence of ThyX, NADPH, and CH2O”. Usually Kd stands for the free concentration of one partner at which half of the binding sites on the other are occupied at equilibrium, for simple one-to-one binding. Lower therefore signals a tighter complex. In turn, `C=O` [formaldehyde] gave a Kd in test [2] of about 20 mM.
